*1 amine or outer side, *2 acyl side, *3 side chain or, on linkers, in order; H or OH if unused. Where a SMILES comes first, the peptide text is derived from it. [ ]: non-standard residue; d: D form. The star is where a group is joined. Sta = CC(C)C[C@H](N)[C@@H](O)CC(=O)O; Isovaleryl = CC(C)CC(=O)*; CO = O=C([*:1])[*:2]
Experiments:
BTMD-SKI-1 = molecular target: T1, BTMD-SKI-1 (Homo sapiens, UniProt Q14703); experiment: biochemical; assay type: biochemical
T1 sequence (Q14703 187-997 limits assumed): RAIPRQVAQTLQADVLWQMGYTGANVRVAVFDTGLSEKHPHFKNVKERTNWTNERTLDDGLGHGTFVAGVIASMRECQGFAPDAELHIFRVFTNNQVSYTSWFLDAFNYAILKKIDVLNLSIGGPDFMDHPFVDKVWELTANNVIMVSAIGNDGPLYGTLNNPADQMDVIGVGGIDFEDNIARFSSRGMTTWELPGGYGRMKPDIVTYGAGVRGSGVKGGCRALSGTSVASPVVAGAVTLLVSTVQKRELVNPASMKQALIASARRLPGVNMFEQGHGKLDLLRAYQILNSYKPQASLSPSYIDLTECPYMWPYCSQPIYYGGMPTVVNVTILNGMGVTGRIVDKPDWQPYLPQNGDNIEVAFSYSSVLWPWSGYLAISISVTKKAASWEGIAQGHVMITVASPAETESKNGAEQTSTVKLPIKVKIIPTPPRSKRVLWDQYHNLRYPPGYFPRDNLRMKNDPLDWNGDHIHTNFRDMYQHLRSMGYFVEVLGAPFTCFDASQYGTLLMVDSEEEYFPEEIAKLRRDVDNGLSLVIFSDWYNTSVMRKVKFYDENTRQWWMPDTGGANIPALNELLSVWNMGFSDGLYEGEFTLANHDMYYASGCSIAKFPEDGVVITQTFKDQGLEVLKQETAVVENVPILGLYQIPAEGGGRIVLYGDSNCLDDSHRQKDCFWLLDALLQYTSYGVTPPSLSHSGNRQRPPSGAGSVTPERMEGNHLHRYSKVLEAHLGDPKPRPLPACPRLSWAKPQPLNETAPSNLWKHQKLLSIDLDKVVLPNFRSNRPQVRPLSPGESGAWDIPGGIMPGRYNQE
T1 sequence (Q14703 17-137 partner limits assumed): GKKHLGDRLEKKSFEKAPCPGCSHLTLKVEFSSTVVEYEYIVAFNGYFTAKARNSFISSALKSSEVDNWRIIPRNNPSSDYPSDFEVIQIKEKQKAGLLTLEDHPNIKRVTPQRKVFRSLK

SKI-1 = molecular target: T2, SKI-1 (Homo sapiens, UniProt Q14703); assay type: cell-based; set-up: The VV recombinant of full-length hSKI-1 has been described (10); expressed in transfected cells; host or cells: COS-7 cells co-infected with vv:BDNF and vv:SKI-1 (with vv:WT, vv:PIT or vv:PDX)
T2 sequence (Q14703 187-1052): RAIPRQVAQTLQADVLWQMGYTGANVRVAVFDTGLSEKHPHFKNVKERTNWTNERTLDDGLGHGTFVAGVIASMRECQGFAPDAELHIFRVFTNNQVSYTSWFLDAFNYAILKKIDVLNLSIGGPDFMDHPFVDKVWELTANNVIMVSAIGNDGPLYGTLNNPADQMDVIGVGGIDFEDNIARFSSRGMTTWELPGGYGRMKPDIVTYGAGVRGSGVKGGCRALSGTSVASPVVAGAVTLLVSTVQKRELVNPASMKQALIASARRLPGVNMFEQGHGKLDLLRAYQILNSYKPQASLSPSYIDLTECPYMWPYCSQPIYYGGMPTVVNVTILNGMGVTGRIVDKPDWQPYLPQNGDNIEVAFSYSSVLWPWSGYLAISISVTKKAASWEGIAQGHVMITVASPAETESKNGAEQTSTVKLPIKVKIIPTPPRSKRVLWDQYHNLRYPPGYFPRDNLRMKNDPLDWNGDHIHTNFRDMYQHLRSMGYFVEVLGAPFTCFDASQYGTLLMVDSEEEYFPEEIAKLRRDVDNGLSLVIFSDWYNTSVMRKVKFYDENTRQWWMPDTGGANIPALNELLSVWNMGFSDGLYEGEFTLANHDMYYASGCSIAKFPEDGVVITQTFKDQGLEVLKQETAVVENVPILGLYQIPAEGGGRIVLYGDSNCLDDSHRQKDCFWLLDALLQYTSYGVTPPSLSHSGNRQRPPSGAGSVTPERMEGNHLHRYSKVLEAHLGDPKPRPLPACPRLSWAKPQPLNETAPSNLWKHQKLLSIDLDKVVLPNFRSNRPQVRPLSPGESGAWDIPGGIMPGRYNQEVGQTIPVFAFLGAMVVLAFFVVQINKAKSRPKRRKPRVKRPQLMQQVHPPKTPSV

[1] = molecular target: T3, peptide X, Q-hSKI-1 (132-142): Abz-VFRSLKYAESD-Y(NO2)-A
T3 chain: XVFRSLKYAESDXA

[2] = molecular target: T4, peptide XI, Q-hSKI-1 (134-142): Abz-RSLKYAESD-Y(NO2)-A
T4 chain: XRSLKYAESDXA

[3] = read-out: Hydrolysis of SREBP-2 peptide (% of control)

## CC(C)CC(=O)N[C@H](C(=O)N[C@H](C(=O)N[C@@H](CC(C)C)[C@@H](O)CC(=O)N[C@@H](C)C(=O)N[C@@H](CC(C)C)[C@@H](O)CC(=O)O)C(C)C)C(C)C [Pepstatin, pepstatin] (Isovaleryl-VV[Sta]A[Sta]-OH)
BTMD-SKI-1; [3]
  remaining activity at 100 µM: 97%

## O=S(=O)([O-])[O-].[Ni+2] [NiSO4]
BTMD-SKI-1
  Hydrolysis of SREBP-2 peptide (% of control): 93 % of control

## Nc1ccc(CS(=O)(=O)F)cc1 [APMSF, para-aminophenylmethylsulfonyl fluoride]
BTMD-SKI-1
  Hydrolysis of SREBP-2 peptide (% of control): 95 % of control

## O=S(=O)([O-])[O-].[Cu+2] [CuSO4]
BTMD-SKI-1
  Hydrolysis of SREBP-2 peptide (% of control): 0 % of control

## CC(=O)N[C@@H](CC(C)C)C(=O)N[C@@H](CC(C)C)C(=O)N[C@H](C=O)CCCNC(=N)N [Leupeptin]
BTMD-SKI-1; [3]
  remaining activity at 1000 µM: 100%

## Cc1ccc(S(=O)(=O)NC(CCCCN)C(=O)CCl)cc1 (stereo not drawn) [TLCK]
BTMD-SKI-1
  Hydrolysis of SREBP-2 peptide (% of control): 100 % of control

## O[C@H](CS)[C@H](O)CS (racemic) [Dithiothreitol]
BTMD-SKI-1; [3]
  remaining activity at 10000 µM: 92%

## CC(C)C[C@H](NC(=O)[C@H]1O[C@@H]1C(=O)O)C(=O)NCCCCN=C(N)N [Peptide E-64]
BTMD-SKI-1
  Hydrolysis of SREBP-2 peptide (% of control): 100 % of control

## CC(C)C[C@H](NC(=O)[C@@H](NC(=O)N[C@@H](Cc1ccccc1)C(=O)O)[C@@H]1CCN=C(N)N1)C(=O)N[C@H](C=O)Cc1ccccc1 [Chymostatin]
BTMD-SKI-1; [3]
  remaining activity at 1000 µM: 100%

## O=S(=O)([O-])[O-].[Zn+2] [ZnSO4]
BTMD-SKI-1
  Hydrolysis of SREBP-2 peptide (% of control): 0 % of control

## [Cl-].[Cl-].[Co+2] [CoCl2]
BTMD-SKI-1
  Hydrolysis of SREBP-2 peptide (% of control): 100 % of control

## α1-antitrypsin Pittsburgh [α1-PIT]
SKI-1
  level of the 28 kDa BDNF product: neither α1-PIT nor α1-PDX affect the level of the 28 kDa product

## cystatin
BTMD-SKI-1
  Hydrolysis of SREBP-2 peptide (% of control): 100 % of control

## O=C(O)CN(CCOCCOCCN(CC(=O)O)CC(=O)O)CC(=O)O [EGTA]
BTMD-SKI-1
  Hydrolysis of SREBP-2 peptide (% of control): 15 % of control

## [Cl-].[Cl-].[Mg+2] [MgCl2]
BTMD-SKI-1
  Hydrolysis of SREBP-2 peptide (% of control): 100 % of control

## CC(C)[C@H](NC(=O)[C@H](CCCNC(=N)N)NC(=O)N[C@@H](Cc1ccccc1)C(=O)O)C(=O)N[C@H](C=O)CCCNC(=N)N [Antipain, antipain] ({Phe-CO}-Arg-Val-Arg-aldehyde)
BTMD-SKI-1; [3]
  remaining activity at 1000 µM: 100%

## Cc1ccc(S(=O)(=O)N[C@@H](Cc2ccccc2)C(=O)CCl)cc1 [TPCK]
BTMD-SKI-1
  Hydrolysis of SREBP-2 peptide (% of control): 71 % of control

B1: 98 kDa shed form of SKI-1 (sSKI-1) (protein)
chain: RAIPRQVAQTLQADVLWQMGYTGANVRVAVFDTGLSEKHPHFKNVKERTNWTNERTLDDGLGHGTFVAGVIASMRECQGFAPDAELHIFRVFTNNQVSYTSWFLDAFNYAILKKIDVLNLSIGGPDFMDHPFVDKVWELTANNVIMVSAIGNDGPLYGTLNNPADQMDVIGVGGIDFEDNIARFSSRGMTTWELPGGYGRMKPDIVTYGAGVRGSGVKGGCRALSGTSVASPVVAGAVTLLVSTVQKRELVNPASMKQALIASARRLPGVNMFEQGHGKLDLLRAYQILNSYKPQASLSPSYIDLTECPYMWPYCSQPIYYGGMPTVVNVTILNGMGVTGRIVDKPDWQPYLPQNGDNIEVAFSYSSVLWPWSGYLAISISVTKKAASWEGIAQGHVMITVASPAETESKNGAEQTSTVKLPIKVKIIPTPPRSKRVLWDQYHNLRYPPGYFPRDNLRMKNDPLDWNGDHIHTNFRDMYQHLRSMGYFVEVLGAPFTCFDASQYGTLLMVDSEEEYFPEEIAKLRRDVDNGLSLVIFSDWYNTSVMRKVKFYDENTRQWWMPDTGGANIPALNELLSVWNMGFSDGLYEGEFTLANHDMYYASGCSIAKFPEDGVVITQTFKDQGLEVLKQETAVVENVPILGLYQIPAEGGGRIVLYGDSNCLDDSHRQKDCFWLLDALLQYTSYGVTPPSLSHSGNRQRPPSGAGSVTPERMEGNHLHRYSKVLEAHLGDPKPRPLPACPRLSWAKPQPLNETAPSNLWKHQKLLSIDLDKVVLPNFRSNRPQVRPLSPGESGAWDIPGGIMPGRYNQ
[1]
  Km(app): 31.3 µM
  Vmax(app): 34 µmol/h
  Vmax(app)/Km(app): 1.1 h^-1L^-1
  cleavage of quenched fluorogenic peptide (mass spectrometry): both peptides were cleaved at the RSLK↓ (SEQ. ID. NO. 100) site by shed SKI-1 derived from HK293 cell transfects, but not by medium obtained from HK293 empty vector transfectants
[2]
  Km(app): 8.7 µM
  Vmax(app): 56.9 µmol/h
  Vmax(app)/Km(app): 6.5 h^-1L^-1
  cleavage of quenched fluorogenic peptide (mass spectrometry): both peptides were cleaved at the RSLK↓ (SEQ. ID. NO. 100) site by shed SKI-1 derived from HK293 cell transfects, but not by medium obtained from HK293 empty vector transfectants

B2: soya bean trypsin inhibitor (protein, UniProt P01070 25-205, looked up)
Trypsin inhibitor A: DFVLDNEGNPLENGGTYYILSDITAFGGIRAAPTGNERCPLTVVQSRNELDKGIGTIISSPYRIRFIAEGHPLSLKFDSFAVIMLCVGIPTEWSVVEDLPEGPAVKIGENKDAMDGWFRLERVSDDEFNNYKLVFCPQQAEDDKCGDIGISIDHDDGTRRLVVSKNKPLVVQFQKLDKESL
BTMD-SKI-1
  Hydrolysis of SREBP-2 peptide (% of control): 100 % of control

B3: proBDNF: 32 kDa human pro-brain-derived neurotrophic factor, precursor substrate (protein, UniProt P23560 19-247, looked up)
pro-form: APMKEANIRGQGGLAYPGVRTHGTLESVNGPKAGSRGLTSLADTFEHVIEELLDEDQKVRPNEENNKDADLYTSRVMLSSQVPLEPPLLFLLEEYKNYLDAANMSMRVRRHSDPARRGELSVCDSISEWVTAADKKTAVDMSGGTVTVLEKVPVSKGQLKQYFYETKCNPMGYTKEGCRGIDKRHWNSQCRTTQSYVRALTMDSKKRIGWRFIRIDTSCVCTLTIKRGR
modifications: pro-form
notes: 32 kDa human pro-brain-derived neurotrophic factor, precursor substrate
SKI-1
  intracellular cleavage of precursor by SKI-1: could be cleaved intracellularly by SKI-1

Source: patent publication US7211424B1, “Mammalian Subtilisin/kexin isozyme SKI-1: a proprotein convertase with a unique cleavage specificity” (Institut de Recherches Cliniques de Montreal, priority 1999, dated 2007)
